Data on four molecules can be found in US6642217B2, “Triterpenes having human antifungal and antiyeast activity” (Naturtek, LLC, priority 2000, dated 2003).

Experiment [1] concerns Microsporum audouinni. Description: Agar dilution method, growth on Sabouraud dextrose agar slants. It counts as cell-based, Microsporum audouinii. Set-up: key: +++: Maximum Fungal Growth; ++: Moderate Fungal Growth; +: Minimum Fungal Growth; +/−: Very little Fungal Growth; −: No Fungal Growth. As to conditions: 12th day after inoculation. As to the method:
(§1) Agar dilution method. Sabouraud Dextrose Agar (Difco Laboratories, Michigan) was prepared according to the manufacturer's instructions. Five ml was dispensed in a 100×25 mm tube and autoclaved. To each tube containing 5.0 ml of liquid agar at 45° C., 0.5, 0.25, 0.12, or 0.063 ml of a DMSO solution of the compound was added to give the final indicated concentrations in Table 2. The agar was then solidified in slants. Fungal cultures were inoculated. The slants were incubated at 25-28° C. for 10-12 days, and the growth of the fungus was recorded every second day.
In general terms: In agar dilution, organisms are placed on agar that contains the substance at set levels.

A further experiment concerns Trichophyton tonsuran. The description is as above. It counts as cell-based, Trichophyton tonsurans. Set-up: key: +++: Maximum Fungal Growth; ++: Moderate Fungal Growth; +: Minimum Fungal Growth; +/−: Very little Fungal Growth; −: No Fungal Growth. Conditions: 12th day after inoculation. As to the method:
as §1

Experiment [2] relates to Epidermophyton floccosum. Description: Direct addition method, solid compound in Sabouraud dextrose agar. It counts as cell-based. Set-up: key: +++: Maximum Fungal Growth; ++: Moderate Fungal Growth; +: Minimum Fungal Growth; +/−: Very little Fungal Growth; −: No Fungal Growth. Conditions: 4 mg/mL of agar; 12th day after inoculation. As to the method: (§2) Direct addition method. Sabouraud dextrose agar was prepared according to the manufacturer's instructions and 5.0 ml was dispensed in each 100×25 mm tube. The tubes were autoclaved. To each tube containing 5.0 ml of liquid agar at 45° C., 20 mg of solid test compound was added, to give a final concentration of 4 mg/ml. The agar was solidified in slants. The fungal cultures were then innoculated. The slants were incubated at 25-28 ° C. for 10-12 days, and the growth of the fungus was recorded every second day. The results in Table 2 indicate growth at the 12th day of inoculation.

For experiment [3], the system named is Trichophyton rubrum. The experiment is described as above. It is filed as cell-based. Set-up: key: +++: Maximum Fungal Growth; ++: Moderate Fungal Growth; +: Minimum Fungal Growth; +/−: Very little Fungal Growth; −: No Fungal Growth. As to conditions: 4 mg/mL of agar; 12th day after inoculation. As to the method: as §2
In experiment [4] the test system is Pityrosporum ovale. Described as above. It is filed as cell-based. Set-up: key: +++: Maximum Fungal Growth; ++: Moderate Fungal Growth; +: Minimum Fungal Growth; +/−: Very little Fungal Growth; −: No Fungal Growth. As to conditions: 4 mg/mL of agar; 12th day after inoculation. As to the method: as §2
Experiment [5] concerns Microsporum canis. Described as above. It is filed as cell-based. Set-up: key: +++: Maximum Fungal Growth; ++: Moderate Fungal Growth; +: Minimum Fungal Growth; +/−: Very little Fungal Growth; −: No Fungal Growth. As to conditions: 4 mg/mL of agar; 12th day after inoculation. As to the method:
as §2

In experiment [6] the test system is Pityrosporum ovale. Description: Direct addition into the Pityrosporum agar. It is filed as cell-based. Set-up: key to Pityrosporum ovale growth: +++: Maximum Growth; ++: Moderate Growth; +: Minimum Growth; +/−: Very Little Growth; −: No Growth. As to conditions: 4 mg/ml in the agar; 18 hours after inoculation. As to the method:
Direct addition method. Sabouraud dextrose agar was prepared according to the manufacturer's instructions and 5.0 ml was dispensed in each 100×25 mm tube. The tubes were autoclaved. To each tube containing 5.0 ml of liquid agar at 45° C., 20 mg of solid test compound was added, to give a final concentration of 4 mg/ml. The agar was solidified in slants. The fungal cultures were then innoculated. […]

Experiment [7] has as its system Epidermophyton floccosum. Description: Agar dilution method, growth on Sabouraud dextrose agar slants. It counts as cell-based. Set-up: key to Fungal growth: +++: Maximum Fungal Growth; ++: Moderate Fungal Growth; +: Minimum Fungal Growth; +/−: Very little Fungal Growth; −: No Fungal Growth. Conditions: 12th day after inoculation. As to the method:
as §1

A further experiment deals with Microsporum audouinii. Description: Summary of anti-fungal assays (direct addition, agar dilution, liquid culture). It is filed as cell-based. Conditions: stated in words (Tables 1a/1b, text to Table 5). As to the method: (§3) This example summarizes the results of various other assays of the anti-fungal activity of betulin derivatives. Table 5 summarizes results using different assay methods—direct addition, agar dilution, and direct addition to liquid culture, as disclosed in the previous three Examples. In some cases, only one type of assay was done with a compound. In other cases, the compound was tested by multiple assays.

For experiment [8], the system named is Trichophyton rubrum. The experiment is described as follows: Agar dilution method, growth on Sabouraud dextrose agar slants. It counts as cell-based. As to conditions: 12th day after inoculation. Set-up: key: +++: Maximum Fungal Growth; ++: Moderate Fungal Growth; +: Minimum Fungal Growth; +/−: Very little Fungal Growth; −: No Fungal Growth. As to the method: as §1

Experiment [9] relates to Pityrosporum ovale. The description is as above. It counts as cell-based. Set-up: key: +++: Maximum Fungal Growth; ++: Moderate Fungal Growth; +: Minimum Fungal Growth; +/−: Very little Fungal Growth; −: No Fungal Growth. As to conditions: 12th day after inoculation. As to the method:
as §1

The subject of a further experiment is Microsporum gypseum. Described as above. It counts as cell-based. Set-up: key: +++: Maximum Fungal Growth; ++: Moderate Fungal Growth; +: Minimum Fungal Growth; +/−: Very little Fungal Growth; −: No Fungal Growth. Conditions: 12th day after inoculation. As to the method:
as §1

In experiment [10] the test system is Microsporum canis. The experiment is described as above. It counts as cell-based. Set-up: key: +++: Maximum Fungal Growth; ++: Moderate Fungal Growth; +: Minimum Fungal Growth; +/−: Very little Fungal Growth; −: No Fungal Growth. Conditions: 12th day after inoculation. As to the method: as §1
Experiment [11] deals with Trichophyton mentagrophyte. The description is as above. It is filed as cell-based, Trichophyton mentagrophytes. Set-up: key to Fungal growth: +++: Maximum Fungal Growth; ++: Moderate Fungal Growth; +: Minimum Fungal Growth; +/−: Very little Fungal Growth; −: No Fungal Growth. As to conditions: 12th day after inoculation. As to the method:
as §1

The test system of experiment [12] is Microsporum audouinni. The experiment is described as follows: Direct addition method, solid compound in Sabouraud dextrose agar. It counts as cell-based, Microsporum audouinii. As to conditions: for Fungal growth: 4 mg/mL of agar, 12th day after inoculation; for best anti-fungal or anti-yeast activity by the direct addition method: against Microsporum audouinii. Set-up: key to Fungal growth: +++: Maximum Fungal Growth; ++: Moderate Fungal Growth; +: Minimum Fungal Growth; +/−: Very little Fungal Growth; −: No Fungal Growth. As to the method:
as §2

Experiment [13] deals with Epidermophyton floccosum. The experiment is described as follows: Summary of anti-fungal assays (direct addition, agar dilution, liquid culture). Conditions: stated in words (Tables 1a/1b, text to Table 5). It counts as cell-based. As to the method:
as §3

Take `C=C(C)C1CCC2(COC(=O)CCC(=O)O)CC[C@@]3(C)C(CCC4[C@@]5(C)CCC(O)C(C)(C)C5CC[C@]43C)C12` (stereo partly shown) [Betulin-28-succinate]: the Fungal growth result in the experiment with Microsporum audouinni [1] (125 μg/ml) was “+”; in the experiment with Microsporum audouinni [1] (250 μg/ml), “+/−”; in the experiment on Microsporum audouinni [1] (500 μg/ml), “−”; in the experiment with Microsporum audouinni [1] (1000 μg/ml), “−”; with Trichophyton tonsuran (125 μg/ml), “++”; with Trichophyton tonsuran (250 μg/ml) it was “+”. Also, the Fungal growth entry is “+” in the experiment on Trichophyton tonsuran (500 μg/ml); “−” in the experiment with Trichophyton tonsuran (1000 μg/ml); “−” in the experiment with Epidermophyton floccosum [2]; “+” in the experiment with Trichophyton rubrum [3]; “−” with Pityrosporum ovale [4]; “+” with Microsporum canis [5]. For the same molecule, the Fungal growth result in the experiment with Epidermophyton floccosum [7] (125 μg/ml) was “++”; in the experiment on Epidermophyton floccosum [7] (250 μg/ml), “+”; with Epidermophyton floccosum [7] (500 μg/ml) it was “+”; in the experiment with Epidermophyton floccosum [7] (1000 μg/ml), “−”; in the experiment with Trichophyton rubrum [8] (125 μg/ml), “+”; in the experiment on Trichophyton rubrum [8] (250 μg/ml), “+”. Moreover, the Fungal growth entry was “+” with Trichophyton rubrum [8] (500 μg/ml); “−” in the experiment with Trichophyton rubrum [8] (1000 μg/ml); “+++” with Pityrosporum ovale [9] (125 μg/ml); “+++” with Pityrosporum ovale [9] (250 μg/ml); “+++” in the experiment on Pityrosporum ovale [9] (500 μg/ml); “++” in the experiment on Pityrosporum ovale [9] (1000 μg/ml). Also, the Fungal growth entry in the experiment with Microsporum gypseum (125 μg/ml) is “++”; with Microsporum gypseum (250 μg/ml), “+”; in the experiment on Microsporum gypseum (500 μg/ml) it was “+”; with Microsporum gypseum (1000 μg/ml), “−”; in the experiment with Microsporum canis [10] (125 μg/ml), “+”; in the experiment with Microsporum canis [10] (250 μg/ml), “+”. Also, the Fungal growth entry with Microsporum canis [10] (500 μg/ml) is listed as “+”; with Microsporum canis [10] (1000 μg/ml), “−”; in [11] (125 μg/ml), “++”; in experiment [11] (250 μg/ml), “+”; in experiment [11] (500 μg/ml), “+”; in experiment [11] (1000 μg/ml) it was “−”. Moreover, in the experiment on Microsporum audouinni [12], the Fungal growth result was “−”. Moreover, the Pityrosporum ovale growth entry in the experiment with Pityrosporum ovale [6] is given as “+”. In addition, the “Active against Microsporum audouinii” value in the experiment on Microsporum audouinii is “Microsporum audouinii”. Moreover, the “best anti-fungal or anti-yeast activity by the direct addition method” value with Microsporum audouinni [12] is “against Microsporum audouinii”.

`C=C(C)C1CCC2(COC(=O)COCC(=O)O)CCC3(C)C(CCC4C5(C)CCC(O)C(C)(C)C5CCC43C)C12` (stereo not shown) [Betulin-28-diglycolate]: in the experiment with Epidermophyton floccosum [13], the “Active against Epidermophyton floccosum” value is recorded as “against Epidermophyton floccosum”.

Regarding `CC1(C)CCC23CC[C@@]4(C)C(CCC5[C@@]6(C)CCC(OC(=O)CCC(=O)O)C(C)(C)C6CC[C@]54C)C2C1OC3` (stereo partly shown) [Allobetulin-3-succinate], the Fungal growth result in the experiment on Microsporum audouinni [1] (62.5 μg/ml) is “++”; in the experiment with Microsporum audouinni [1] (125 μg/ml) it was “++”; in the experiment on Microsporum audouinni [1] (250 μg/ml), “−”; in the experiment with Microsporum audouinni [1] (500 μg/ml), “−”; with Trichophyton tonsuran (62.5 μg/ml), “++”; in the experiment on Trichophyton tonsuran (125 μg/ml) it was “++”. The Fungal growth entry in the experiment with Trichophyton tonsuran (250 μg/ml) is “+”; in the experiment with Trichophyton tonsuran (500 μg/ml), “−”; in the experiment on Epidermophyton floccosum [2], “−”; in the experiment on Trichophyton rubrum [3] it was “+”; in the experiment on Pityrosporum ovale [4], “−”; with Microsporum canis [5], “+”. For the same molecule, the Fungal growth entry with Epidermophyton floccosum [7] (62.5 μg/ml) is on record as “++”; in the experiment on Epidermophyton floccosum [7] (125 μg/ml), “++”; in the experiment with Epidermophyton floccosum [7] (250 μg/ml), “+”; in the experiment with Epidermophyton floccosum [7] (500 μg/ml) it was “−”; with Trichophyton rubrum [8] (62.5 μg/ml), “++”; in the experiment on Trichophyton rubrum [8] (125 μg/ml) it was “++”. Moreover, the Fungal growth entry in the experiment with Trichophyton rubrum [8] (250 μg/ml) was “−”; in the experiment on Trichophyton rubrum [8] (500 μg/ml), “−”; with Pityrosporum ovale [9] (62.5 μg/ml), “+++”; with Pityrosporum ovale [9] (125 μg/ml), “+++”; with Pityrosporum ovale [9] (250 μg/ml), “+++”; in the experiment with Pityrosporum ovale [9] (500 μg/ml) it was “+”. Also, the Fungal growth entry with Microsporum gypseum (62.5 μg/ml) is recorded as “+++”; in the experiment with Microsporum gypseum (125 μg/ml), “++”; in the experiment on Microsporum gypseum (250 μg/ml), “+”; in the experiment on Microsporum gypseum (500 μg/ml), “−”; with Microsporum canis [10] (62.5 μg/ml) it was “++”; with Microsporum canis [10] (125 μg/ml), “++”. Besides, the Fungal growth entry in the experiment with Microsporum canis [10] (250 μg/ml) was “−”; with Microsporum canis [10] (500 μg/ml), “−”; in experiment [11] (62.5 μg/ml), “++”; in [11] (125 μg/ml), “+”; in experiment [11] (250 μg/ml) it was “+/−”; in experiment [11] (500 μg/ml), “−”. Moreover, in the experiment with Microsporum audouinni [12], the Fungal growth result is reported as “+”. The Pityrosporum ovale growth entry in the experiment with Pityrosporum ovale [6] is given as “+”. Also, the “Active against Microsporum audouinii” value with Microsporum audouinii is “Microsporum audouinii”.

For `C=C(C)[C@@H]1CC[C@]2(COC(=O)/C=C\C(=O)O)CC[C@]3(C)[C@H](CC[C@@H]4[C@@]5(C)CC[C@H](OC(=O)/C=C\C(=O)O)C(C)(C)[C@@H]5CC[C@]43C)[C@@H]12` [Betulin-3,28-dimaleate], the Fungal growth result is “−” with Epidermophyton floccosum [2]; “+” with Trichophyton rubrum [3]; “−” in the experiment on Pityrosporum ovale [4]; “+” with Microsporum canis [5]; “−” in the experiment on Microsporum audouinni [12]. Further, the Pityrosporum ovale growth result in the experiment on Pityrosporum ovale [6] was “+”. In the experiment with Microsporum audouinii, the “Active against Microsporum audouinii” value is reported as “Microsporum audouinii”. The “best anti-fungal or anti-yeast activity by the direct addition method” value in the experiment on Microsporum audouinni [12] is listed as “against Microsporum audouinii”.
